{"source": "patent US20200029555A1", "about": "“BIODEGRADABLE HYDROGEL TO DELIVER AQUEOUS BAIT TO CONTROL PEST ANTS” (priority 2016, published 2020)", "origin": "cited, not measured here", "key": {"Argentine ants": {"tested_on": "Argentine ants", "conditions": "0.001% liquid thiamethoxam"}, "[1]": {"tested_on": "laboratory colonies of queens and workers", "conditions": "liquid baits 0.00001-0.005% thiamethoxam; 14-day period"}}}
{"molecule": "CN1COCN(Cc2cnc(Cl)s2)/C1=N\\[N+](=O)[O-]", "note": "[thiamethoxam]", "values": [{"measurement": "reduction of Argentine ants in urban settings", "setting": "Argentine ants", "result": "successfully reduced"}, {"measurement": "mortality of laboratory colonies of queens and workers", "setting": "[1]", "result": "complete mortality"}]}
